In brackets after ≈: the same amount, converted by molar mass.
Assays:
[1] = Intrinsic clearance in rat hepatocytes after 120 mins by LC-MS/MS analysis; format: ADME, cell-based, Hepatocyte; settings: read-out: CLH
[2] = Lipophilicity, log D of the compound at 100 uM at pH 7 by HPLC/DAD analysis; format: physicochemical; settings: buffer
[3] = Intrinsic clearance in human hepatocytes after 120 mins by LC-MS/MS analysis; format: ADME, cell-based, Hepatocyte; settings: read-out: CLH
[4] = biological target: T1, Tyrosine-protein kinase JAK2 (Homo sapiens, UniProt O60674)
T1 sequence (O60674 whole entry): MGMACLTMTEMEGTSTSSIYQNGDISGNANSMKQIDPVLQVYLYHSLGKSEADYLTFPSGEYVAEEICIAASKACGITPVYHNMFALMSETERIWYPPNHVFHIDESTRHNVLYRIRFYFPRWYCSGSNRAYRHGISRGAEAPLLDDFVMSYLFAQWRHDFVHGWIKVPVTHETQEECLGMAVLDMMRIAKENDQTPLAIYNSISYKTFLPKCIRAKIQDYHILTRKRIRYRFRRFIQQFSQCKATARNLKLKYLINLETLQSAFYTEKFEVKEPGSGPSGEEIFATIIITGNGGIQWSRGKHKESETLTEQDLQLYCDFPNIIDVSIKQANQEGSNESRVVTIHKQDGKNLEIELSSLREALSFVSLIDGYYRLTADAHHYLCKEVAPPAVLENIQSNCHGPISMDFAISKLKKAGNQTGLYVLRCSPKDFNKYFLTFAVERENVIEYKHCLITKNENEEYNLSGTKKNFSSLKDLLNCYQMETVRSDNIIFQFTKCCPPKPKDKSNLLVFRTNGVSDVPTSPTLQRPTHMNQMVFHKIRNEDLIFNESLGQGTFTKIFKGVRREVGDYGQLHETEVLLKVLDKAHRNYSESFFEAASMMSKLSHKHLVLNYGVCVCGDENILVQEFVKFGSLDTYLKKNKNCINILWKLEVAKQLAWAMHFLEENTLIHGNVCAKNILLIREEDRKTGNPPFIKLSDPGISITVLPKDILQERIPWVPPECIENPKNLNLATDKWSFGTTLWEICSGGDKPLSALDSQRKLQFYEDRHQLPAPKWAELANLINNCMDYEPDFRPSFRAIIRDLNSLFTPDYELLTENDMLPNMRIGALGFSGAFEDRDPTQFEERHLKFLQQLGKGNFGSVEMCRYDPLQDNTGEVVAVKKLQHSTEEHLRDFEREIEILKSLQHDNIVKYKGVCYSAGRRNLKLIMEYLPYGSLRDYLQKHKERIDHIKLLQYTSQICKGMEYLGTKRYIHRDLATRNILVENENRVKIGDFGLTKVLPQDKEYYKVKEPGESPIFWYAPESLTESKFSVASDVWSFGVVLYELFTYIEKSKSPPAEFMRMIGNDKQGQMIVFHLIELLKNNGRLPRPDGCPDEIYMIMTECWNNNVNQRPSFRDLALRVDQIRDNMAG

[5] = biological target: T1, Tyrosine-protein kinase JAK2; remark: listed apart in the source
[6] = Oral bioavailability in rat at 1 mg/kg; format: ADME, organism-based; settings: in vivo
[7] = biological target: Non-receptor tyrosine-protein kinase TYK2 (Homo sapiens, UniProt P29597)
Non-receptor tyrosine-protein kinase TYK2, sequence (P29597 whole entry): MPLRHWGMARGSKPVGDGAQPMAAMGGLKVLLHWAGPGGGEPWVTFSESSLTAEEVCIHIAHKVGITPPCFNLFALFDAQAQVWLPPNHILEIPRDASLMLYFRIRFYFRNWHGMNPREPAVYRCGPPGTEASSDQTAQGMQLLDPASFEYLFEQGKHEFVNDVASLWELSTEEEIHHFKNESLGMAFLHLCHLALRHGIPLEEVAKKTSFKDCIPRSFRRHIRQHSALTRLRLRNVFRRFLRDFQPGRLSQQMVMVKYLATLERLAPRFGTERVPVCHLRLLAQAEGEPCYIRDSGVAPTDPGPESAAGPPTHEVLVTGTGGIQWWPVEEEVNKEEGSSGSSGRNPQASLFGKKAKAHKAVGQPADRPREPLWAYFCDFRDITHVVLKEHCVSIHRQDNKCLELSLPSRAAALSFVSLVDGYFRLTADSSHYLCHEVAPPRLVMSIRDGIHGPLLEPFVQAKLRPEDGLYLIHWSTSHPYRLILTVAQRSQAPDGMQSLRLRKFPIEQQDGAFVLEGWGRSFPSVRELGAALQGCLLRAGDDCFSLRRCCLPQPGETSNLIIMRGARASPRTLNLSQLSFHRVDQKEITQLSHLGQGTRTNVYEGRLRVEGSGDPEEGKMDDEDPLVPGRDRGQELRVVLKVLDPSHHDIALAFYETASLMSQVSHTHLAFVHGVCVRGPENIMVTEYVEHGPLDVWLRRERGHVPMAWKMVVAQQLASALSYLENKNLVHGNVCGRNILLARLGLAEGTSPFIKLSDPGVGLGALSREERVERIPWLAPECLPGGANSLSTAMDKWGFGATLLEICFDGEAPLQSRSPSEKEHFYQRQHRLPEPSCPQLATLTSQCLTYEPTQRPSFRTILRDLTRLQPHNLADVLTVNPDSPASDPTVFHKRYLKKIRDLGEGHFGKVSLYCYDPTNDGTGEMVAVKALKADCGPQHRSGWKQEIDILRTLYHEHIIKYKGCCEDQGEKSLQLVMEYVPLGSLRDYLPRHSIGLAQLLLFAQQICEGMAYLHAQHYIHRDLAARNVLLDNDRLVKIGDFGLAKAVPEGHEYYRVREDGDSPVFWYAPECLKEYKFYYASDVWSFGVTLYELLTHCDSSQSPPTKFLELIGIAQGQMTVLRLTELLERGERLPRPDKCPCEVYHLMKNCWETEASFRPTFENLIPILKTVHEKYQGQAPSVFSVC

[8] = biological target: T2, Tyrosine-protein kinase JAK1 (Homo sapiens, UniProt P23458)
T2 sequence (P23458 whole entry): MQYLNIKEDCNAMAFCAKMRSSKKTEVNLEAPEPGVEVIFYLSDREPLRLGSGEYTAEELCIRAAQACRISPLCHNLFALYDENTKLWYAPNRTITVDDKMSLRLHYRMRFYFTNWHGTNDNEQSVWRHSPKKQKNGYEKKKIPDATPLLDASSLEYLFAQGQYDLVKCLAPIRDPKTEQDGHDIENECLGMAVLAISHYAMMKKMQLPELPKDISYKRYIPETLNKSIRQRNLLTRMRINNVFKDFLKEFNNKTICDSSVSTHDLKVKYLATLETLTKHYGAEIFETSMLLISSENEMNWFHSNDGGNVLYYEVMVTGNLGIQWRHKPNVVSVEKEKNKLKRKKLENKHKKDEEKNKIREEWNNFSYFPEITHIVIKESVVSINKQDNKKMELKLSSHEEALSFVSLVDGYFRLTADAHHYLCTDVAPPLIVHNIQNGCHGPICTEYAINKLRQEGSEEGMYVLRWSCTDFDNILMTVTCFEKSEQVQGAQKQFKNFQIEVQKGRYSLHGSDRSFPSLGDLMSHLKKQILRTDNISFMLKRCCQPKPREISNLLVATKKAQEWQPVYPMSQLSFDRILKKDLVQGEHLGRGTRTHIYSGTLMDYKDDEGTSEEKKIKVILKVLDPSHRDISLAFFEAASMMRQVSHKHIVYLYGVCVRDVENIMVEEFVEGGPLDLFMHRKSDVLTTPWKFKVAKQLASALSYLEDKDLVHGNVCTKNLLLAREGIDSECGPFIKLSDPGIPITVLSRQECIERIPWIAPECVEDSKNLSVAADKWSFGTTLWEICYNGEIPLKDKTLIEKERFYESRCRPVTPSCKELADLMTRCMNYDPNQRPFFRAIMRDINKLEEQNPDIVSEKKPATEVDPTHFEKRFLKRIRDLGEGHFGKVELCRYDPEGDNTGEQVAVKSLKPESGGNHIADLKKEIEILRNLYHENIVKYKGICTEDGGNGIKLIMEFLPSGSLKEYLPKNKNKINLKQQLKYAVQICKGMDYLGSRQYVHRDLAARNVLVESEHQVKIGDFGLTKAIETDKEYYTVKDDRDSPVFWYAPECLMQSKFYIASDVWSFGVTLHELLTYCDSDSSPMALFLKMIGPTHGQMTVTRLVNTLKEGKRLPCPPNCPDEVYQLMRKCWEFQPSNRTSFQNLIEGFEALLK

[9] = Solubility of the compound in FaSSIF solution at 100 uM after overnight incubation by UPLC/DAD analysis; format: physicochemical
[10] = biological target: T3, Tyrosine-protein kinase JAK3 (Homo sapiens, UniProt P52333)
T3 sequence (P52333 whole entry): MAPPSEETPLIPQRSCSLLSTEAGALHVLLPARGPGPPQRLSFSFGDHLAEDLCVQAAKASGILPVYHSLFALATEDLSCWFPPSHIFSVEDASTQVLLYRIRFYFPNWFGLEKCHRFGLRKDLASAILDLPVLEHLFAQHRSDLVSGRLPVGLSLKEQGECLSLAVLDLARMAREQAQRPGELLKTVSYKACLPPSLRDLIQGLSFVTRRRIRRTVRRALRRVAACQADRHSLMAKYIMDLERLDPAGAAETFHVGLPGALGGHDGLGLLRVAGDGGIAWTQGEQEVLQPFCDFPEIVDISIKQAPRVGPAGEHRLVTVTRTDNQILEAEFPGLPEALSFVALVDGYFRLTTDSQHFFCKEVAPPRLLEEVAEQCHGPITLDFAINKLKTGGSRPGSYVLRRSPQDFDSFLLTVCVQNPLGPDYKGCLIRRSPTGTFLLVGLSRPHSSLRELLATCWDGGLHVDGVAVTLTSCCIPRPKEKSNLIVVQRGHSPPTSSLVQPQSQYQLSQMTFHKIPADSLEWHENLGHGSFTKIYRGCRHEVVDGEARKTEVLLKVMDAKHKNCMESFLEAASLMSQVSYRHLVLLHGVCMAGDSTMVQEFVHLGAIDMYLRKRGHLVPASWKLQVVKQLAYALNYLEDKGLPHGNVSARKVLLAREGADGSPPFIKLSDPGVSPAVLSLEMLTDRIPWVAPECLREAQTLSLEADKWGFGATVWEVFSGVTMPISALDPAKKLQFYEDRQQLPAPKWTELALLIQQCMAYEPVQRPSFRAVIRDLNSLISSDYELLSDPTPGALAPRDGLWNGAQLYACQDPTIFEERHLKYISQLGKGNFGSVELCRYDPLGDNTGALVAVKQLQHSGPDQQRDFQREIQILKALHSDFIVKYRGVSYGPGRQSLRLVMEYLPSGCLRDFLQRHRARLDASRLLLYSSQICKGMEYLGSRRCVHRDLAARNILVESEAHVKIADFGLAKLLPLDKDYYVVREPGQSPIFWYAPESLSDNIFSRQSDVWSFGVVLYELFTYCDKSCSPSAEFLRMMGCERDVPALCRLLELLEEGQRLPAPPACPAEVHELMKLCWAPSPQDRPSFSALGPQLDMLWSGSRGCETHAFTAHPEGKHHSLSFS

[11] = biological target: T2, Tyrosine-protein kinase JAK1; remark: listed apart in the source
[12] = biological target: T4, Voltage-gated inwardly rectifying potassium channel KCNH2 (Homo sapiens, UniProt Q12809); experiment: Inhibition of human ERG expressed in HEK293 cells by patch clamp method; format: cell-based
T4 sequence (Q12809 whole entry): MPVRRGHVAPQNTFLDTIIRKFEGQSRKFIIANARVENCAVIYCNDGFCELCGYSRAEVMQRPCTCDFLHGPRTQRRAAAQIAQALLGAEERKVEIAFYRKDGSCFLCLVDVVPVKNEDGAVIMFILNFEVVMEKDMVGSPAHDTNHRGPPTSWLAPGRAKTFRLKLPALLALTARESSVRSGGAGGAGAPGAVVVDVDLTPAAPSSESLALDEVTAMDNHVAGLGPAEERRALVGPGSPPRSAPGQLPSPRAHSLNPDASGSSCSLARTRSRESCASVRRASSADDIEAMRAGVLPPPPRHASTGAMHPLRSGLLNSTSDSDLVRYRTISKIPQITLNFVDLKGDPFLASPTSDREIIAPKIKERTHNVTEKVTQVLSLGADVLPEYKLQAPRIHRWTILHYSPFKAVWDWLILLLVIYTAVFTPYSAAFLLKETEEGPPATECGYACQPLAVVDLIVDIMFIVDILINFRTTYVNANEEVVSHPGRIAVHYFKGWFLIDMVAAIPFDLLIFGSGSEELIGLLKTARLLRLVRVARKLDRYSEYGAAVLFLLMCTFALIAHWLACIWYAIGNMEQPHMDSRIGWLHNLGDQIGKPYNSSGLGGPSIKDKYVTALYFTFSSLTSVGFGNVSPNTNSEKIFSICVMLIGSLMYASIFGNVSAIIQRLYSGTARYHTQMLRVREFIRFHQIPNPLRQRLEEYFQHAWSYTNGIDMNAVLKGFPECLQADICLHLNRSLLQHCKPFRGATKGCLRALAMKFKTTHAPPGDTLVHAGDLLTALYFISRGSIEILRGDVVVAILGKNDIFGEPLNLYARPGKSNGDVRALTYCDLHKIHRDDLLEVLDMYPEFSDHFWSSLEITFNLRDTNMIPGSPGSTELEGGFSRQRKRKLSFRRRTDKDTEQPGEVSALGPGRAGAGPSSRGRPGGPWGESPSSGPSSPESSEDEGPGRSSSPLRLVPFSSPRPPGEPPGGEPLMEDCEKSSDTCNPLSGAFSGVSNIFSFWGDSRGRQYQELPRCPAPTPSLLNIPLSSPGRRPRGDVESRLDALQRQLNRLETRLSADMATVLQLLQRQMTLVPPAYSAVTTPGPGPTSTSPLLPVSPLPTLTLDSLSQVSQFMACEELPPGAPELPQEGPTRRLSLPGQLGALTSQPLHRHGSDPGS

[13] = Plasma clearance in dog at 0.25 mg/kg, iv or 0.5 mg/kg, po; format: ADME, organism-based, Canis lupus familiaris
[14] = Oral bioavailability in dog at 0.5 mg/kg; format: ADME, organism-based, Canis lupus familiaris; settings: in vivo
[15] = biological target: T4, Voltage-gated inwardly rectifying potassium channel KCNH2
[16] = Plasma clearance in rat at 0.5 mg/kg, iv or 1 mg/kg, po; format: ADME, organism-based
[17] = Volume of distribution at steady state in rat at 0.5 mg/kg, iv or 1 mg/kg, po; format: ADME, organism-based; settings: in vivo, read-out: Vdss
[18] = Volume of distribution at steady state in dog at 0.25 mg/kg, iv or 0.5 mg/kg, po; format: ADME, organism-based, Canis lupus familiaris; settings: in vivo, read-out: Vdss
[19] = test system: Rattus norvegicus; experiment: Antiinflammatory activity in po dosed Lewis rat type 2 bovine collagen-induced arthritis model assessed as inhibition of paw swelling administered as bid on day 17; format: functional, organism-based
[20] = Plasma clearance in cynomolgus monkey at 0.25 mg/kg, iv or 0.5 mg/kg, po; format: ADME, organism-based, Macaca fascicularis
[21] = Intrinsic clearance in dog hepatocytes after 120 mins by LC-MS/MS analysis; format: ADME, cell-based, Canis lupus familiaris, Hepatocyte; settings: read-out: CLH
[22] = biological target: T2, Tyrosine-protein kinase JAK1; experiment: Inhibition of JAK1 in human whole blood assessed as decrease in cytokine-stimulated STAT phosphorylation preincubated for 20 mins followed by cytokine addition measured after 30 mins
[23] = Half life in cynomolgus monkey at 0.25 mg/kg, iv or 0.5 mg/kg, po; format: ADME, organism-based, Macaca fascicularis; settings: in vivo
[24] = test system: Cynomolgus monkey; experiment: Unbound clearance in cynomolgus monkey at 0.25 mg/kg, iv or 0.5 mg/kg, po; format: ADME, organism-based, Macaca fascicularis; settings: in vivo
[25] = Half life in dog at 0.25 mg/kg, iv or 0.5 mg/kg, po; format: ADME, organism-based, Canis lupus familiaris; settings: in vivo
[26] = Protein binding in rat plasma; format: ADME, cell-free; settings: read-out: PPB (converted)
[27] = organism: Homo sapiens; experiment: Selectivity ratio of IC50 for GST-tagged recombinant human JAK2 catalytic domain to IC50 for GST-tagged recombinant human JAK1 catalytic domain
[28] = Intrinsic clearance in cynomolgus monkey hepatocytes after 120 mins by LC-MS/MS analysis; format: ADME, cell-based, Macaca fascicularis, Hepatocyte; settings: read-out: CLH
[29] = Volume of distribution at steady state in cynomolgus monkey at 0.25 mg/kg, iv or 0.5 mg/kg, po; format: ADME, organism-based, Macaca fascicularis; settings: in vivo, read-out: Vdss
[30] = test system: Rattus norvegicus; experiment: Unbound clearance in rat at 0.5 mg/kg, iv or 1 mg/kg, po; format: ADME, organism-based; settings: in vivo
[31] = Oral bioavailability in cynomolgus monkey at 0.5 mg/kg; format: ADME, organism-based, Macaca fascicularis; settings: in vivo
[32] = Half life in rat at 0.5 mg/kg, iv or 1 mg/kg, po; format: ADME, organism-based; settings: in vivo
[33] = Protein binding in cynomolgus monkey plasma; format: ADME, cell-free, Macaca fascicularis; settings: read-out: PPB (converted)
[34] = Apparent permeability of the compound by cell-based assay; format: physicochemical; settings: not told

CLint scaled [1] [mL/min/kg]	logD at 100 µM [2]	CLint scaled [3] [mL/min/kg]	IC50 [5] [nM]	bioavailability [6] [%]	IC50 [7] [nM]	IC50 [8] [nM]	solubility at 100 µM [9] [µM]	IC50 [10] [nM]	IC50 [11] [nM]	clearance [16] [mL/min/kg]	SMILES	IC50 [15] [nM]	other results
4.8	1	2.5	254	3	0.5	23	96 (≈ 36.3 µg/mL)	116	0.06	–	N#C[C@H]1CCOC[C@@H]1n1cc(C(N)=O)c(Nc2ccc(-n3ccnn3)cc2)n1	–	IC50 [4]: 0.7 nM
70	2.08	6	–	79	2.9	33	18 (≈ 5.6 µg/mL)	361	0.4	20	N#C[C@H]1CCOC[C@@H]1n1cc(C(N)=O)c(Nc2ccccc2)n1	> 60000	CL free [30]: 110 mL/min/kg
55	1.48	< 20	39	18	0.2	6	42 (≈ 16.4 µg/mL)	91	0.02	–	Cn1cc(-c2ccc(Nc3nn([C@H]4COCC[C@@H]4C#N)cc3C(N)=O)cc2)cn1	> 60000	IC50 [4]: 0.5 nM; Ratio IC50 [27]: 23

Further lines, the compound ahead of its results:

SMILES	CLint scaled [1] [mL/min/kg]	logD at 100 µM [2]	CLint scaled [3] [mL/min/kg]	IC50 [5] [nM]	bioavailability [6] [%]	IC50 [7] [nM]	IC50 [8] [nM]	solubility at 100 µM [9] [µM]	IC50 [10] [nM]	IC50 [11] [nM]	clearance [16] [mL/min/kg]	IC50 [15] [nM]	other results
CN(C)[C@H]1CC[C@H](n2cc(C(N)=O)c(Nc3ccc(Cl)cc3)n2)[C@@H](C#N)C1	109	2.15	26	–	16	13	64	–	1230	1.5	41	12200	IC50 [12]: 3000 nM; clearance [13]: 21 mL/min/kg; bioavailability [14]: 42%; Vd [17]: 11 L/kg; Vd [18]: 8 L/kg
COc1cc(Nc2nn([C@H]3COCC[C@@H]3C#N)cc2C(N)=O)ccc1Cl	35	2.34	6	320	47	12	13	–	397	0.1	21	–	inhibition [19]: Dose-dependent effect; clearance [20]: 19 mL/min/kg; CLint scaled [21]: 122 mL/min/kg; IC50 [22]: 1760 nM; clearance [13]: 14 mL/min/kg; bioavailability [14]: 29%; half-life [23]: 2.8 h; CL free [24]: 581 mL/min/kg; half-life [25]: 1.1 h; fraction unbound [26]: 0.06; Ratio IC50 [27]: 39; CLint scaled [28]: 36 mL/min/kg; Vd [29]: 2.8 L/kg; CL free [30]: 350 mL/min/kg; Vd [17]: 2.7 L/kg; bioavailability [31]: 32%; half-life [32]: 1.6 h; fraction unbound [33]: 0.033; Vd [18]: 1.2 L/kg
N#C[C@H]1CCOC[C@@H]1n1cc(C(N)=O)c(Nc2ccnc(F)c2)n1	5	1.18	1.5	–	19	3	–	159 (≈ 52.5 µg/mL)	511	–	–	> 60000	–
N#C[C@H]1C[C@@H](N2CCC2)CC[C@@H]1n1cc(C(N)=O)c(Nc2ccc([C@H](O)C(F)(F)F)cc2)n1	–	1.54	–	–	0	–	–	–	–	–	–	–	Papp [34]: 3.3 ×10⁻⁶ cm/s
